For experiment [1], the system named is P. aeruginosa ATCC 10145. The conditions noted are these: CFU assay, 10 mM NaP, pH 5.5, 0.25% glucose.
Experiment [2] deals with S. aureus ATCC 6538. Particulars: CFU assay, 10 mM NaP.

Where “and” joins values, the source holds several entries; their conditions need not be identical. Equal entries are not always repeated. Where two headings read alike, the source gives them in different places. Square brackets hold non-standard residues; d marks the D form. Ends that are not written are not given here. Peptide text beside a SMILES is read from it. * marks the point of attachment. Palmitoyl = CCCCCCCCCCCCCCCC(=O)*; Myristoyl = CCCCCCCCCCCCCC(=O)* A value given as a limit tells only on which side of the number the result lay.

For `CCCCCCCCCCCCCCCC(=O)NCC(=O)N[C@H](CCCNC(=N)N)C(=O)N[C@H](CCCNC(=N)N)C(=O)NCC(=O)NCC(=O)N[C@H](CCCNC(=N)N)C(=O)NCC(=O)NCC(=O)N[C@H](CCCNC(=N)N)C(=O)O` [(D)-Pal-GR9] (Palmitoyl-G[dR][dR]GG[dR]GG[dR]-OH; C-terminus assumed), the LD90 in experiment [1] was 0.038 µg/mL; in experiment [2] (pH 5.5, 0.25% glucose), 0.15 µg/mL. Besides, the LD100 turned out to be 0.59 µg/mL in experiment [1] and 2.35 µg/mL in experiment [2] (pH 5.5, 0.25% glucose).

Take `CCCCCCCCCCCCCC(=O)NCC(=O)N[C@@H](CCCNC(=N)N)C(=O)N[C@@H](CCCNC(=N)N)C(=O)NCC(=O)N[C@@H](CO)C(=O)NCC(=O)N[C@@H](CC(C)C)C(=O)NCC(=O)N[C@@H](CCCNC(=N)N)C(=O)N[C@@H](CO)C(=O)N[C@@H](CO)C(=O)N[C@@H](CO)C(=O)N[C@@H](CCCNC(=N)N)C(=O)NCC(=O)N[C@@H](CCC(N)=O)C(=O)N[C@@H](CCCNC(=N)N)C(=O)NCC(=O)N[C@@H](CO)C(=O)NCC(=O)N[C@@H](CO)C(=O)NCC(=O)N[C@@H](CCCNC(=N)N)C(=O)O` [Myr-HR 1-18-HR] (Myristoyl-GRRGSGLGRSSSRGQRGSGSGR-OH; C-terminus assumed): in experiment [2] (pH 7.3, 1% TSB), the LD90 worked out at 18.75 µg/mL and the LD100 is listed as 75 µg/mL.

For `CCCCCCCCCCCCCCCC(=O)SC[C@H](NC(=O)[C@H](CO)NC(=O)[C@H](CO)NC(=O)[C@H](CO)NC(=O)[C@H](CCC(N)=O)NC(=O)CNC(=O)[C@H](CO)NC(=O)[C@@H](NC(=O)[C@H](CO)NC(=O)CNC(=O)[C@H](Cc1c[nH]cn1)NC(=O)[C@H](CCC(N)=O)NC(=O)CNC(=O)[C@H](Cc1c[nH]cn1)NC(=O)[C@@H](NC(=O)[C@H](CO)NC(=O)[C@H](CO)NC(=O)[C@H](Cc1c[nH]cn1)NC(=O)CNC(=O)[C@H](CO)NC(=O)[C@H](CO)NC(=O)[C@H](CO)NC(=O)CNC(=O)[C@H](Cc1c[nH]cn1)NC(=O)[C@H](CCC(N)=O)NC(=O)CN)[C@@H](C)O)[C@@H](C)O)C(N)=O` [S-Pal-HRNR598–623] (H-GQHGSSSGHSSTHGQHGSTSGQSSSC(Palmitoyl)-NH2; N-terminus assumed), in experiment [2] (pH 5.5, 0.25% glucose), the LD90 is 2.35 µg/mL and the LD100 was greater than 150 µg/mL.

As to `CCCCCCCCCCCCCCCC(=O)SC[C@H](N)C(=O)NCC(=O)N[C@@H](CCC(N)=O)C(=O)N[C@@H](Cc1c[nH]cn1)C(=O)NCC(=O)N[C@@H](C)C(=O)N[C@H](C(=O)N[C@@H](CO)C(=O)NCC(=O)N[C@@H](CCC(N)=O)C(=O)N[C@@H](CO)C(=O)N[C@@H](CO)C(=O)N[C@@H](CO)C(=O)N[C@@H](Cc1c[nH]cn1)C(=O)NCC(=O)N[C@@H](CCC(N)=O)C(=O)N[C@@H](Cc1c[nH]cn1)C(=O)NCC(=O)N[C@@H](CO)C(=O)NCC(=O)N[C@@H](CO)C(=O)N[C@@H](CO)C(=O)N[C@@H](CCC(N)=O)C(=O)N[C@@H](CO)C(=O)N[C@@H](CO)C(=O)N[C@@H](CCCNC(=N)N)C(=O)O)[C@@H](C)O` [S-Pal-HRNR623–648] (H-C(Palmitoyl)GQHGATSGQSSSHGQHGSGSSQSSR-OH; N-terminus and C-terminus assumed), in experiment [2] (pH 5.5, 0.25% glucose), the LD90 is 2.35 µg/mL and the LD100 is greater than 150 µg/mL.

`CCCCCCCCCCCCCCCC(=O)SC[C@H](N)C(=O)NCC(=O)N[C@@H](CCC(N)=O)C(=O)N[C@@H](Cc1c[nH]cn1)C(=O)NCC(=O)N[C@@H](C)C(=O)N[C@H](C(=O)N[C@@H](CO)C(=O)N[C@@H](CO)C(=O)NCC(=O)N[C@@H](CCC(N)=O)C(=O)N[C@@H](CO)C(=O)N[C@@H](CO)C(=O)N[C@@H](CO)C(=O)N[C@@H](Cc1c[nH]cn1)C(=O)NCC(=O)N[C@@H](CCC(N)=O)C(=O)N[C@@H](Cc1c[nH]cn1)C(=O)NCC(=O)N[C@@H](CO)C(=O)NCC(=O)N[C@@H](CO)C(=O)N[C@@H](CO)C(=O)N[C@@H](CCC(N)=O)C(=O)N[C@@H](CO)C(=O)N[C@@H](CO)C(=O)NCC(=O)N[C@@H](Cc1ccc(O)cc1)C(=O)NCC(=O)N[C@@H](CCCNC(=N)N)C(=O)O)[C@@H](C)O` [S-Pal-HRNR1089–1117] (H-C(Palmitoyl)GQHGATSSGQSSSHGQHGSGSSQSSGYGR-OH; N-terminus and C-terminus assumed): the LD100 in experiment [2] (pH 5.5, 0.25% glucose) was greater than 150 µg/mL.

As to `CCCCCCCCCCCCCCCC(=O)SC[C@H](NC(=O)CNC(=O)[C@H](CO)NC(=O)[C@H](CO)NC(=O)[C@H](CCC(N)=O)NC(=O)[C@H](Cc1c[nH]c2ccccc12)NC(=O)[C@H](CO)NC(=O)[C@H](CO)NC(=O)[C@H](CO)NC(=O)[C@H](CCC(=O)O)NC(=O)[C@H](Cc1c[nH]cn1)NC(=O)[C@H](Cc1c[nH]cn1)NC(=O)CNC(=O)[C@H](Cc1ccccc1)NC(=O)CNC(=O)[C@H](CO)NC(=O)[C@H](CO)NC(=O)[C@H](CCC(N)=O)NC(=O)CNC(=O)[C@H](CO)NC(=O)CNC(=O)[C@H](CO)NC(=O)CNC(=O)[C@H](Cc1c[nH]cn1)NC(=O)[C@H](CCCNC(=N)N)NC(=O)CN)C(N)=O` [S-Pal-HRNR1389–1414] (H-GRHGSGSGQSSGFGHHESSSWQSSGC(Palmitoyl)-NH2; N-terminus assumed), in experiment [2] (pH 5.5, 0.25% glucose), the LD90 turned out to be 1.18 µg/mL and the LD100 stood at 18.8 µg/mL.

For the compound `CCCCCCCCCCCCCCCC(=O)SC[C@H](NC(=O)[C@H](Cc1ccccc1)NC(=O)[C@H](Cc1c[nH]cn1)NC(=O)CNC(=O)[C@H](CO)NC(=O)CNC(=O)[C@H](CO)NC(=O)CNC(=O)[C@H](Cc1c[nH]cn1)NC(=O)[C@H](CCC(N)=O)NC(=O)[C@H](CO)NC(=O)[C@H](Cc1ccc(O)cc1)NC(=O)[C@H](C)NC(=O)[C@H](CO)NC(=O)[C@H](CO)NC(=O)[C@H](Cc1c[nH]cn1)NC(=O)CNC(=O)[C@H](CO)NC(=O)CNC(=O)[C@H](CO)NC(=O)[C@H](CCC(=O)O)NC(=O)[C@H](Cc1c[nH]cn1)NC(=O)[C@H](CCC(N)=O)NC(=O)CNC(=O)[C@H](Cc1ccccc1)NC(=O)[C@@H](NC(=O)[C@H](CO)NC(=O)[C@H](CO)NC(=O)[C@H](Cc1c[nH]cn1)NC(=O)CNC(=O)[C@@H](N)CO)C(C)C)C(N)=O` [S-Pal-HRNR1748–1778] (H-SGHSSVFGQHESGSGHSSAYSQHGSGSGHFC(Palmitoyl)-NH2; N-terminus assumed), in experiment [2] (pH 5.5, 0.25% glucose), the LD90 amounted to 0.3 µg/mL and the LD100 was found to be 9.38 µg/mL.

Turning to `CCCCCCCCCCCCCCCC(=O)SC[C@H](NC(=O)[C@H](CO)NC(=O)[C@H](CO)NC(=O)[C@H](CO)NC(=O)[C@H](CCC(N)=O)NC(=O)CNC(=O)[C@H](CO)NC(=O)[C@H](C)NC(=O)[C@H](CO)NC(=O)CNC(=O)[C@H](Cc1c[nH]cn1)NC(=O)[C@H](CCC(N)=O)NC(=O)CNC(=O)[C@H](Cc1c[nH]cn1)NC(=O)[C@@H](NC(=O)[C@H](CO)NC(=O)[C@H](CO)NC(=O)[C@H](Cc1c[nH]cn1)NC(=O)CNC(=O)[C@H](CO)NC(=O)[C@H](CO)NC(=O)[C@H](CO)NC(=O)CNC(=O)[C@H](Cc1c[nH]cn1)NC(=O)[C@H](CCC(N)=O)NC(=O)CN)[C@@H](C)O)C(N)=O` [S-Pal-HRNR2004–2029] (H-GQHGSSSGHSSTHGQHGSASGQSSSC(Palmitoyl)-NH2; N-terminus assumed), in experiment [2] (pH 5.5, 0.25% glucose), the LD90 came out at 0.59 µg/mL; the LD100 was > 150 µg/mL and 75 µg/mL.

In experiment [2] (pH 5.5, 0.25% glucose), GRRGGGGGRGGGRGGRGGGGGR [HR 1-18,G+R] showed an LD90 greater than 300 µg/mL and an LD100 greater than 300 µg/mL.

“Pal-SHHRHFRSHQCRRQRS NSCDR [Pal-LCE-3C55-75]”: in experiment [2] (pH 5.5, 0.25% glucose), the LD90 came to 0.15 µg/mL and the LD100 stood at 0.59 µg/mL.

As for SHHRPRLFHRRRH [LCE-2B74-86], in experiment [2] (pH 5.5, 0.25% glucose), the LD90 worked out at 1.18 µg/mL and the LD100 is greater than 150 µg/mL.

(Values after PMC6399351, “Cationic Intrinsically Disordered Antimicrobial Peptides (CIDAMPs) Represent a New Paradigm of Innate Defense with a Potential for Novel Anti-Infectives” (Scientific Reports, 2019).)
